Strand notation (5' to 3'): a small letter for the sugar, then the base; units joined by * are phosphorothioate-linked, units joined directly phosphodiester-linked; [ ] holds rarer units or linkages, { } end groups; capitals alone tell only the bases. k = constrained ethyl (cEt); [5mC] = 5-methylcytosine; d = 2'-deoxy (DNA)
The substances below were run on human SMAD7 mRNA (assay: Antisense inhibition of human SMAD7 mRNA expression in Hep3B cells by 3-10-3 cEt gapmers, 10,000 nM, electroporation (Example 2)). Details: Hep3B cells, electroporation with 10,000 nM antisense oligonucleotide, approximately 24 hours, SMAD7 mRNA by RT-PCR (RTS5062), relative to untreated control cells.
Format: cell-based
How it was run: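 Hep3B cells (20,000 per well) were electroporated with 10,000 nM 16-mer 3-10-3 cEt gapmer (phosphorothioate, 5-methylcytosine). After about 24 h, SMAD7 mRNA was quantified by qRT-PCR with primer probe set RTS5062, normalised to RIBOGREEN total RNA, and expressed as percent inhibition versus untreated cells.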
“830177 (antisense k[5mC]*kA*kG*d[5mC]*d[5mC]*d[5mC]*dT*dT*dT*d[5mC]*dA*d[5mC]*d[5mC]*k[5mC]*k[5mC]*kT) [compound 830177]” was tested, and the “% Inhibition” value was 40%.
“830178 (antisense kA*k[5mC]*kG*dA*d[5mC]*dA*dG*d[5mC]*d[5mC]*dT*dG*dG*dA*kG*kA*k[5mC]) [compound 830178]” was tested, and the “% Inhibition” value was 32%.
“830179 (antisense kT*kT*kT*dA*d[5mC]*dT*dG*d[5mC]*dA*dT*dT*d[5mC]*d[5mC]*kG*kG*k[5mC]) [compound 830179]” was tested, and the “% Inhibition” value was 51%.
“830181 (antisense kG*k[5mC]*kG*dG*d[5mC]*dT*dT*d[5mC]*d[5mC]*dT*dG*dT*dG*k[5mC]*k[5mC]*k[5mC]) [compound 830181]” was tested, and the “% Inhibition” value was 10%.
“830182 (antisense kG*kT*kG*dT*d[5mC]*d[5mC]*dT*dT*d[5mC]*dA*dG*dA*dA*k[5mC]*kA*k[5mC]) [compound 830182]” was tested, and the “% Inhibition” value was 0%.
For “830183 (antisense k[5mC]*kG*kG*dT*dT*dG*d[5mC]*d[5mC]*dT*d[5mC]*dA*dT*d[5mC]*k[5mC]*kT*kG) [compound 830183]”, the “% Inhibition” value was 47%.
With “830184 (antisense kA*k[5mC]*kG*dG*dT*dT*dG*d[5mC]*d[5mC]*dT*d[5mC]*dA*dT*k[5mC]*k[5mC]*kT) [compound 830184]” the “% Inhibition” value was 48%.
For “830185 (antisense kG*k[5mC]*k[5mC]*dA*d[5mC]*d[5mC]*dA*dA*d[5mC]*dG*dG*dT*dT*kG*k[5mC]*k[5mC]) [compound 830185]”, the “% Inhibition” value was 27%.
In the case of “830186 (antisense kA*kG*kG*dT*d[5mC]*d[5mC]*dA*dG*dG*dG*dT*d[5mC]*d[5mC]*kT*k[5mC]*k[5mC]) [compound 830186]”, the “% Inhibition” value is reported as 50%.
For “830187 (antisense kA*kT*kT*dA*d[5mC]*d[5mC]*d[5mC]*dT*dG*d[5mC]*dT*d[5mC]*dA*kT*kG*kA) [compound 830187]”, the “% Inhibition” value was 31%.
For “830188 (antisense k[5mC]*k[5mC]*kA*d[5mC]*dT*dT*dA*dG*d[5mC]*dA*dA*dG*dG*kA*kG*k[5mC]) [compound 830188]”, the “% Inhibition” value was 50%.
“830189 (antisense kT*kT*kG*dG*dA*dG*d[5mC]*dA*dA*d[5mC]*dA*d[5mC]*d[5mC]*kA*kG*kA) [compound 830189]” was tested, and the “% Inhibition” value was 49%.
With “830190 (antisense kT*kA*kA*dT*d[5mC]*dA*dG*dA*dT*dG*d[5mC]*d[5mC]*dT*kG*k[5mC]*kT) [compound 830190]” the “% Inhibition” value was 39%.
With “830191 (antisense k[5mC]*kT*kA*dA*dT*d[5mC]*dA*dG*dA*dT*dG*d[5mC]*d[5mC]*kT*kG*k[5mC]) [compound 830191]” the “% Inhibition” value was 47%.
With “830192 (antisense kA*k[5mC]*kT*dA*dA*dT*d[5mC]*dA*dG*dA*dT*dG*d[5mC]*k[5mC]*kT*kG) [compound 830192]” the “% Inhibition” value was 41%.
For “830193 (antisense k[5mC]*kT*kT*dT*dT*d[5mC]*d[5mC]*dG*dG*dT*dA*dT*dT*kT*kT*k[5mC]) [compound 830193]”, the “% Inhibition” value was 35%.
For “830194 (antisense k[5mC]*k[5mC]*kT*dT*dT*dT*d[5mC]*d[5mC]*dG*dG*dT*dA*dT*kT*kT*kT) [compound 830194]”, the “% Inhibition” value was 49%.
With “830195 (antisense kA*kA*k[5mC]*d[5mC]*dT*dT*dT*dT*d[5mC]*d[5mC]*dG*dG*dT*kA*kT*kT) [compound 830195]” the “% Inhibition” value was 35%.
In the case of “830196 (antisense kT*kT*kA*dA*dT*dG*dG*d[5mC]*d[5mC]*d[5mC]*dA*dG*d[5mC]*k[5mC]*k[5mC]*kA) [compound 830196]”, the “% Inhibition” value is reported as 31%.
For “830197 (antisense kG*kT*kT*dA*dA*dT*dG*dG*d[5mC]*d[5mC]*d[5mC]*dA*dG*k[5mC]*k[5mC]*k[5mC]) [compound 830197]”, the “% Inhibition” value was 31%.
With “830198 (antisense kA*kG*kG*d[5mC]*dT*dA*d[5mC]*dA*d[5mC]*d[5mC]*dA*dA*dA*kG*kA*k[5mC]) [compound 830198]” the “% Inhibition” value was 30%.
“830199 (antisense kA*kA*kG*dG*d[5mC]*dT*dA*d[5mC]*dA*d[5mC]*d[5mC]*dA*dA*kA*kG*kA) [compound 830199]” was tested, and the “% Inhibition” value was 37%.
“830200 (antisense kG*kA*kA*dG*dG*d[5mC]*dT*dA*d[5mC]*dA*d[5mC]*d[5mC]*dA*kA*kA*kG) [compound 830200]” was tested, and the “% Inhibition” value was 33%.
“830201 (antisense k[5mC]*kT*kG*dA*dA*dG*dG*d[5mC]*dT*dA*d[5mC]*dA*d[5mC]*k[5mC]*kA*kA) [compound 830201]” was tested, and the “% Inhibition” value was 37%.
With “830202 (antisense kT*k[5mC]*kT*dG*dA*dA*dG*dG*d[5mC]*dT*dA*d[5mC]*dA*k[5mC]*k[5mC]*kA) [compound 830202]” the “% Inhibition” value was 50%.
In the case of “830203 (kG*k[5mC]*kT*d[5mC]*dT*dG*dA*dA*dG*dG*d[5mC]*dT*dA*k[5mC]*kA*k[5mC]; antisense) [compound 830203]”, the “% Inhibition” value is reported as 40%.
“830204 (kG*kT*kA*dT*d[5mC]*d[5mC]*dA*dT*d[5mC]*dA*dA*d[5mC]*dT*kG*k[5mC]*kT; antisense) [compound 830204]” was tested, and the “% Inhibition” value was 59%.
In the case of “830205 (kG*kA*k[5mC]*dT*d[5mC]*dA*dT*d[5mC]*dA*dG*dG*d[5mC]*dA*kT*kT*k[5mC]; antisense) [compound 830205]”, the “% Inhibition” value is reported as 26%.
In the case of “830206 (kT*kG*kA*d[5mC]*dT*d[5mC]*dA*dT*d[5mC]*dA*dG*dG*d[5mC]*kA*kT*kT; antisense) [compound 830206]”, the “% Inhibition” value is reported as 51%.
For “830209 (kA*k[5mC]*k[5mC]*dG*dG*dA*dA*dG*dT*d[5mC]*dT*dT*dG*kT*kA*kT; antisense) [compound 830209]”, the “% Inhibition” value was 31%.
“830210 (kG*kA*k[5mC]*d[5mC]*dG*dG*dA*dA*dG*dT*d[5mC]*dT*dT*kG*kT*kA; antisense) [compound 830210]” was tested, and the “% Inhibition” value was 29%.
With “830211 (kA*kG*kA*d[5mC]*d[5mC]*dG*dG*dA*dA*dG*dT*d[5mC]*dT*kT*kG*kT; antisense) [compound 830211]” the “% Inhibition” value was 30%.
For “830212 (kG*k[5mC]*kA*dG*dG*dG*dT*dG*dG*dA*dG*dA*d[5mC]*k[5mC]*kG*kG; antisense) [compound 830212]”, the “% Inhibition” value was 43%.

From patent publication US10517889B2, “Modulators of SMAD7 expression” (Ionis Pharmaceuticals, Inc., priority 2017, dated 2019)
